In patent US20050154031A1, “5-Ht2b receptor antagonists” (priority 2002, published 2005):

Assays:
[1] = biological target: T1, human cloned 5-HT2B receptors (Homo sapiens, UniProt P41595); experiment: Human cloned 5-HT2B receptor binding assay ([3H]LSD); conditions: membranes of CHO-K1 cells expressing cloned 5-HT2B receptor, [3H]LSD 1 nM; read-out: 5-HT2B pKi (converted)
T1 construct: expressed in transfected cells; host or cells: CHO-K1
Method: Human Cloned 5-HT2B Receptor Binding Assay
The binding affinity of the compounds for human cloned 5-HT2B receptors was determined using the following assay.
CHO-K1 cells expressing cloned 5-HT2B receptor were maintained in Ultra-CHO medium containing 400 μg/ml of G418, 100 U/ml penicillin, 100 μg/ml streptomycin, 2.5 μg/ml fungizone and 1% foetal bovine serum, in 95/5% O2/CO2 at 37° C. The cells were harvested using 0.25% trypsin and were centrifuged at 800 rpm for 8 minutes. The cells were homogenised in 50 mM HEPES buffer containing 1 mM disodium EDTA and 1 mM PMSF at pH 7.4, using a Dounce homogeniser (20 strokes). The homogenate was centrifuged at 2280 rpm (1000 g) and 4° C. for 10 minutes, after which the supernatant was removed by decanting. The pellet was re-homogenised as above, and the resulting supernatant removed and combined with that already obtained. The supernatant solution was then centrifuged at 18300 rpm (40000 g) for 10 minutes at 4° C. using a Sorvall centrifuge. The supernatant was removed, and the pellet was re-suspended in 50 mM buffer at pH 7.4 using a Ultra-turrax T25 Polytron, before centrifugation again at 40000 g as above. This wash procedure was repeated, after which the membrane preparation was stored at a concentration of 1 mg/ml at −80° C. until use.
The membranes were thawed rapidly and diluted in assay buffer containing Tris-HCl (50 mM, pH 7.4), ascorbic acid (0.1%) and calcium chloride (4 mM). The membranes were homogenised to resuspend them, prior to adding 10 or 15 μg of membranes to assay wells containing [^3H]LSD (1 nM), assay buffer (50 mM Tris, 4 mM calcium chloride and 0.1% ascorbic acid) containing pargyline (10 μM), and the test compounds (1×10^−10 to 1×10^−4 M). Non specific binding was determined in the presence of 100 μM 5-HT. After 30 minutes incubation at 37° C., the assay mixture was filtered through a combination of GF-C and GF-B filters, pre-soaked in 1% polyethyleneimine, using a Brandel cell harvester, and were washed three times using 50 mM Tris-HCl. Radioactivity retained on the filters was determined by liquid scintillation counting. For each test compound, the concentration that inhibited binding of [^3H)LSD by 50% was determined using curve fitting software (Prism). Kd values (concentration of LSD required to occupy 50% of the receptor binding sites at equilibrium) determined from saturation binding studies were then used to calculate inhibition dissociation constants (Ki) using the following equation: [formula]
This approach follows that set out in Kenakin, T. P. Pharmacologic analysis of drug-receptor interaction. Raven Press, New York, 2nd Edition, which is incorporated herein by reference.

[2] = biological target: T2, cloned human 5-HT2A receptor (Homo sapiens, UniProt P28223); experiment: Human 5-HT2A receptor binding assay ([3H]ketanserin); conditions: membranes of CHO-K1 cells expressing cloned human 5-HT2A receptor, [3H]ketanserin 1 nM; read-out: 5-HT2A pKi (converted)
T2 construct: purchased Euroscreen; host or cells: CHO-K1
T2 sequence (P28223 whole entry): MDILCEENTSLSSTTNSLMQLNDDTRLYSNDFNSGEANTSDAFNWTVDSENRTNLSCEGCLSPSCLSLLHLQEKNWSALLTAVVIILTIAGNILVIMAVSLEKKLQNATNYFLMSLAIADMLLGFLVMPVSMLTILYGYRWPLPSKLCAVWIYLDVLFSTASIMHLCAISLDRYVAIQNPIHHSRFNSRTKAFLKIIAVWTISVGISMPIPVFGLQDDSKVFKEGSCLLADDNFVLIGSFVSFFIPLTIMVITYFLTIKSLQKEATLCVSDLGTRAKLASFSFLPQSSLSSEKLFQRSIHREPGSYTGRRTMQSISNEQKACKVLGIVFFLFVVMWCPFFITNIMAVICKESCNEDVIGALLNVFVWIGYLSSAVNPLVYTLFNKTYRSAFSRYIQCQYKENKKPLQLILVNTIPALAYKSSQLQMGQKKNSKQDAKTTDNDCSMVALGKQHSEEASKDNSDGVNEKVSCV
Method: (§1) Human 5-HT2A and 5-HT2C Receptor Binding Assays
(§2) The binding affinity of ligands for human 5-HT2A and 5-HT2C receptors was determined using the following assay.
Membrane preparations from CHO-K1 cells expressing the cloned human 5-HT2A receptor were obtained (Euroscreen). The membranes were thawed rapidly and diluted in assay buffer containing Tris-HCl (50 mM, pH 7.7). The membranes were resuspended by homogenisation, prior to adding 15 μg of membranes to assay wells containing [^3H] ketanserin (1 nM), assay buffer (50 mM Tris at pH 7.4) containing pargyline (10 μM), and test compounds (1×10^−10 to 1×10^−4M). Non specific binding was determined in the presence of 100 μM mianserin. After 15 minutes incubation at 37° C., the assay mixture was filtered through a combination of GF-C and GF-B filters, pre-soaked in 0.05% Brij, using a Brandel cell harvester, and were washed three times using ice cold Tris-HCl buffer (50 mM). Radioactivity retained on the filters was determined by liquid scintillation counting. For each test compound, the concentration that inhibited binding of [^3H]ketanserin by 50% was determined using curve fitting software (Prism). Kd values (concentration of ketanserin required to occupy 50% of the receptor binding sites at equlibrium)determined from saturation binding studies were then used to calculate inhibition dissociation constants (Ki) using the following equation: [formula]

[3] = biological target: T3, cloned human 5-HT2C receptor (Homo sapiens, UniProt P28335); experiment: Human 5-HT2C receptor binding assay ([3H]mesulergine); conditions: membranes of CHO-K1 cells expressing cloned human 5-HT2C receptor, [3H]mesulergine 1 nM; read-out: 5-HT2C pKi (converted)
T3 construct: purchased Euroscreen; host or cells: CHO-K1
T3 sequence (P28335 33-458): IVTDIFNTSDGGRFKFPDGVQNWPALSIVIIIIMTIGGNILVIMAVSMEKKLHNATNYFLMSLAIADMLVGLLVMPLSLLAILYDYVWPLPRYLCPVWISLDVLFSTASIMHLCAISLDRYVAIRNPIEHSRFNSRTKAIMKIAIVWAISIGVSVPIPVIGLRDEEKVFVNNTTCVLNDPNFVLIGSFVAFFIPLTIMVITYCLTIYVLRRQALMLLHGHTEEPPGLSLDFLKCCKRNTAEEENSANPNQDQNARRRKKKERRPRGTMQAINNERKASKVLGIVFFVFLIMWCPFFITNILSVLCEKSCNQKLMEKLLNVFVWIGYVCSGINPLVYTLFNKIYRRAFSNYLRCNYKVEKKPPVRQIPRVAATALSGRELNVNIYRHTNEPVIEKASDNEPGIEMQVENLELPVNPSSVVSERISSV
Method: as §1, §2
Membrane preparations from CHO-K1 cells expressing the cloned human 5-HT2C receptor were obtained (Euroscreen). The membranes were thawed rapidly and diluted in assay buffer containing Tris-HCl (50 mM, pH 7.7), ascorbic acid (0.1%) and pargyline (10 μM). The membranes were resuspended by homogenisation, prior to adding 6 μg of membranes to assay wells containing [^3H] mesulergine (1 nM), assay buffer (50 mM Tris at pH 7.7 and 0.1% ascorbic acid) containing pargyline (10 μM), and test compounds (1×10^−10 to 1×10^−4M). Non specific binding was determined in the presence of 100 μM mianserin. After 30 minutes incubation at 37° C., the assay mixture was filtered through a combination of GF-C and GF-B filters, pre-soaked in 1% bovine serum albumin, using a Brandel cell harvester, and were washed three times using ice cold Tris-HCl buffer (50 mM). Radioactivity retained on the filters was determined by liquid scintillation counting. For each test compound, the concentration that inhibited binding of [^3H]mesulergine by 50% was determined using curve fitting software (Prism). Kd values (concentration of mesulergine required to occupy 50% of the receptor binding sites at equlibrium) determined from saturation binding studies were then used to calculate inhibition dissociation constants (Ki) using the following equation: [formula]

[4] = biological target: T1, human cloned 5-HT2B receptors; experiment: Human cloned 5-HT2B cell-based functional assay (Fluo-4, block of 5-HT response); conditions: CHO.K1 cells expressing cloned 5-HT2B receptor, inhibition of the 5-HT response
Method: Human Cloned […] Cell-Based Functional Assay The following describes an in vitro functional assay using human cloned 5-HT2B receptors to determine the ability of compounds to block the receptor. CHO.K1 cells expressing cloned 5-HT2B receptor were maintained In Ultra-CHO medium containing 400 μg/ml of G418, 100 U/ml penicillin, 100 μg/ml streptomycin, 2.5 μg/ml fungizone, in 95/5% O2/CO2 at 37° C. Ultra-CHO medium additionally supplemented with 1% foetal bovine serum was used when seeding the cells and removed after 5 hours. Cells were plated in Costar 96 well white, clear-bottomed plate at a density of 50,000 cells per well and incubated for at least 24 hours in 95/5% O2/CO2 at 37° C. before running the assay. Media was removed from the wells and 200 μl of 4 μM Fluo-4 AM added, this was incubated in a Wallace Victor 2V workstation at 37° C. for 30 minutes. The Fluo-4 AM was then removed from the wells, which were then washed twice with 200 μl of buffer (HBSS without calcium/magnesium/phenol red, 20 mM HEPES, 1 mM Ca^2+, 1 mM Mg^2+, 2.5 mM probenecid, pH to 7.4), 180 μl of buffer or test compound was added to the well and incubated for 30 minutes. The Victor 2V injectors were used to inject 20 μl of 5-HT after obtaining 10 0.1-second baseline readings at 535 nm, followed by 150 readings. All test compounds were aliquoted in 100% DMSO at 10 mM and diluted to 1 mM in 50% DMSO, subsequent dilutions were made using buffer. Buffer was also used to dilute the 5-HT. Data were analysed using Microsoft Excel and GraphPad Prism, with the latter used to produce sigmoidal dose-response curves for each compound. The compound concentration that inhibited the 5-HT response by 50% was taken (IC50−M), and the results are shown in Table 2, as pIC50, being the negative log (to the base 10) of the measured IC50 values.

T1 sequence (P41595 whole entry): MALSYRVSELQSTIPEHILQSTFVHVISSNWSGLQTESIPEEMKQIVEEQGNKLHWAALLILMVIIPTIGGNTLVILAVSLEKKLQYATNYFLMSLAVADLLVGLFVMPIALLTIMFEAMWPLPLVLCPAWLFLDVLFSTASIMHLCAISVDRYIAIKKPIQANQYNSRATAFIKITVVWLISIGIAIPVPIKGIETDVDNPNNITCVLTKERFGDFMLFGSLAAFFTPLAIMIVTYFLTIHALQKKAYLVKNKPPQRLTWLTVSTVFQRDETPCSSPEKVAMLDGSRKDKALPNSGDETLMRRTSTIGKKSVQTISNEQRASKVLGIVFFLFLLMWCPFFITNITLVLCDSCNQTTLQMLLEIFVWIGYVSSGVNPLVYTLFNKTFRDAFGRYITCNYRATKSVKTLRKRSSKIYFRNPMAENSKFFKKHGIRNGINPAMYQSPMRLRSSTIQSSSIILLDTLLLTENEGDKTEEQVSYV

Ki [1] | Ki [2] | Ki [3] | IC50 [4] | Compound
< 1000 nM | > 10000 nM | > 1000 nM | < 1000 nM | Cc1sc(N)nc1-c1cccc2ccccc12 [Compound 1, 2-amino-5-methyl-4-(naphth-1-yl)thiazole]
< 100 nM | > 1000 nM | > 1000 nM | < 100 nM | CC(C)c1sc(N)nc1-c1cccc2ccccc12 [Compound 2, 2-amino-5-isopropyl-4-(naphth-1-yl)thiazole]
< 10000 nM | > 10000 nM | > 10000 nM | < 10000 nM | Nc1nc(-c2ccc3ccccc3c2)cs1 [Compound 4, 2-amino-4-(naphth-2-yl)thiazole]

Compound | Ki [1] | Ki [2] | Ki [3] | IC50 [4]
Nc1nc(-c2cccc3ccccc23)cs1 [Compound 3, 2-amino-4-(naphth-1-yl)thiazole] | < 1000 nM | > 1000 nM | > 1000 nM | < 1000 nM
